# Active and inactive are the calls of the source. The rule behind the calls is not given here.
# Experiments:
# HeLa [1] = assay: Antiproliferative activity against human HeLa cells after 48 hrs by MTT assay; format: functional, cell-based
# MCF7 = assay: Antiproliferative activity against human MCF7 cells after 48 hrs by MTT assay; format: functional, cell-based; conditions: MCF7, 48 h
# A549 = assay: Antiproliferative activity against human A549 cells after 48 hrs by MTT assay; format: functional, cell-based; conditions: A549, 48 h
# HeLa [2] = assay: Cell cycle arrest in human HeLa cells assessed as accumulation at S phase at 5 uM after 48 hrs by propidium iodide staining based FACS analysis (reference value: 5.58%); format: functional
# HeLa [3] = assay: Cell cycle arrest in human HeLa cells assessed as accumulation at G1 phase at 2.5 uM after 48 hrs by propidium iodide staining based FACS analysis (reference value: 73.5%); format: functional
# Calf thymus DNA [4] = assay: Binding affinity to calf thymus DNA assessed as hypochromicity shift in positive band at DNA to compound ratio of 1:1 by CD spectral analysis; format: nucleic-acid assay; conditions: Bos taurus
# HEK293 = assay: Antiproliferative activity against HEK293 cells after 48 hrs by MTT assay; format: cell-based; conditions: Homo sapiens, HEK293, 48 h
# HeLa [5] = assay: Cell cycle arrest in human HeLa cells assessed as accumulation at sub-G1 phase at 5 uM after 48 hrs by propidium iodide staining based FACS analysis (reference value: 1.69%); format: functional
# Calf thymus DNA [6] = assay: Binding affinity to calf thymus DNA assessed as hypochromicity at 10 uM by UV-Visible spectrophotometric method; format: nucleic-acid assay; conditions: Bos taurus
# HeLa [7] = assay: Cell cycle arrest in human HeLa cells assessed as accumulation at G2/M phase at 5 uM after 48 hrs by propidium iodide staining based FACS analysis (reference value: 13.9%); format: functional
# HeLa [8] = assay: Cell cycle arrest in human HeLa cells assessed as accumulation at G2/M phase at 2.5 uM after 48 hrs by propidium iodide staining based FACS analysis (reference value: 13.9%); format: functional
# Calf thymus DNA [9] = assay: Binding affinity to calf thymus DNA assessed as hypochromicity shift in positive band at DNA to compound ratio of 1:2 by CD spectral analysis; format: nucleic-acid assay; conditions: Bos taurus
# HeLa [10] = assay: Cell cycle arrest in human HeLa cells assessed as accumulation at sub-G1 phase at 2.5 uM after 48 hrs by propidium iodide staining based FACS analysis (reference value: 1.69%); format: functional
# [11] = biological target: T1, DNA topoisomerase 1 (Homo sapiens) (UniProt P11387); assay: Inhibition of topoisomerase-1 (unknown origin) at 100 uM using pBR322 DNA as substrate after 30 mins by agarose gel electrophoresis method
# T1 sequence (whole entry): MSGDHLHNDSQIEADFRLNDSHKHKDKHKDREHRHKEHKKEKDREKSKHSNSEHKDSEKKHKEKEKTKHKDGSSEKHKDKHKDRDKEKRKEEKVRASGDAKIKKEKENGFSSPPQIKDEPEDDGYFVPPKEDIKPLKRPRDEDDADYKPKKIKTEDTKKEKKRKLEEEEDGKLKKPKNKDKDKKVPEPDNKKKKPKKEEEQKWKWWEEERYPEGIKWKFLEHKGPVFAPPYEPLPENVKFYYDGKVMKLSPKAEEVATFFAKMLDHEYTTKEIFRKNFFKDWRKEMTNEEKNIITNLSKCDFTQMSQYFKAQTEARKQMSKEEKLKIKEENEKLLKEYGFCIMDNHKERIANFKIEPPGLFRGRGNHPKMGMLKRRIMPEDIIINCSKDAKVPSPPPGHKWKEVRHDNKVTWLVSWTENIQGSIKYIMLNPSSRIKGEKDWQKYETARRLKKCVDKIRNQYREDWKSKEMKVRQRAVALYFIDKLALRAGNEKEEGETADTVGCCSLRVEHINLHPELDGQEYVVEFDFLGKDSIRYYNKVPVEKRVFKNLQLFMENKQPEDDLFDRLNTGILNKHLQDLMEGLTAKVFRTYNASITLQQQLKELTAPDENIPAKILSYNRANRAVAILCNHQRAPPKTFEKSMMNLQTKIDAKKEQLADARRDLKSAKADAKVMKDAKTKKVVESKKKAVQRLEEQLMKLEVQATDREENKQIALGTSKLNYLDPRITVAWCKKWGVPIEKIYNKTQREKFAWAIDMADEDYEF
# HeLa [12] = assay: Cell cycle arrest in human HeLa cells assessed as accumulation at G1 phase at 5 uM after 48 hrs by propidium iodide staining based FACS analysis (reference value: 73.5%); format: functional
# Calf thymus DNA [13] = assay: Binding affinity to calf thymus DNA assessed as DNA intercalation by measuring increase in viscosity at 15 uM by Ostwald viscometric method; format: nucleic-acid assay; conditions: Bos taurus
# HeLa [14] = assay: Cell cycle arrest in human HeLa cells assessed as accumulation at S phase at 2.5 uM after 48 hrs by propidium iodide staining based FACS analysis (reference value: 5.58%); format: functional
# Calf thymus DNA [15] = assay: Binding affinity to calf thymus DNA assessed as hypochromicity shift at 10 uM by fluorescence spectral analysis; format: nucleic-acid assay; conditions: Bos taurus
# Calf thymus DNA [16] = assay: Binding affinity to calf thymus DNA assessed as hypochromicity shift in negative band at DNA to compound ratio of 1:1 to 1:2 by CD spectral analysis; format: nucleic-acid assay; conditions: Bos taurus
# Calf thymus DNA [17] = assay: Binding affinity to calf thymus DNA assessed as DNA intercalation by measuring increase in viscosity at 5 uM by Ostwald viscometric method; format: nucleic-acid assay; conditions: Bos taurus
SMILES,IC50 (HeLa [1]),IC50 (MCF7),IC50 (A549),other results
Oc1ccc2ccccc2c1C(Nc1nc2ccc(Cl)cc2s1)c1cn(-c2ccccc2)nc1-c1ccc(Cl)cc1 (centres undefined),36.8 µM,27.5 µM,54.1 µM,
Oc1ccc2ccccc2c1C(Nc1nc2ccc(Cl)cc2s1)c1cn(-c2ccccc2)nc1-c1cccc(Cl)c1 (centres undefined),18.3 µM,17.5 µM,33.3 µM,
COc1ccc2nc(NC(c3cn(-c4ccccc4)nc3-c3ccc(Cl)cc3)c3c(O)ccc4ccccc34)sc2c1 (centres undefined),5.2 µM,23.7 µM,34.5 µM,Activity (HeLa [2]): 9.03%; Activity (HeLa [3]): 66.2%; Activity (Calf thymus DNA [4]): Active; IC50 (HEK293): 56 µM; Activity (HeLa [5]): 2.03%; Activity (Calf thymus DNA [6]): Active; Activity (HeLa [7]): 20%; Activity (HeLa [8]): 19.9%; Activity (Calf thymus DNA [9]): Active; Activity (HeLa [10]): 2.33%; inhibition [11]: Active; Activity (HeLa [12]): 66.5%; Activity (Calf thymus DNA [13]): inactive; Activity (HeLa [14]): 8.89%; Activity (Calf thymus DNA [15]): 507 nm; Activity (Calf thymus DNA [16]): Active
Cc1ccc(-c2nn(-c3ccccc3)cc2C(Nc2nc3cc(C)c(C)cc3s2)c2c(O)ccc3ccccc23)cc1 (centres undefined),17.8 µM,22.4 µM,31.2 µM,
COc1ccc2nc(NC(c3cn(-c4ccccc4)nc3-c3cccc(I)c3)c3c(O)ccc4ccccc34)sc2c1 (centres undefined),6.24 µM,20 µM,39.3 µM,
Oc1ccc2ccccc2c1C(Nc1nc2ccc(Cl)cc2s1)c1cn(-c2ccccc2)nc1-c1ccc(I)cc1 (centres undefined),12.1 µM,65 µM,29 µM,
Oc1ccc2ccccc2c1C(Nc1nc2ccccc2s1)c1cn(-c2ccccc2)nc1-c1ccccc1 (centres undefined),17.3 µM,48.9 µM,36.2 µM,
O=[N+]([O-])c1cccc(-c2nn(-c3ccccc3)cc2C(Nc2nc3ccc(Cl)cc3s2)c2c(O)ccc3ccccc23)c1 (centres undefined),15.5 µM,19.7 µM,42.5 µM,
O=[N+]([O-])c1ccc(-c2nn(-c3ccccc3)cc2C(Nc2nc3ccccc3s2)c2c(O)ccc3ccccc23)cc1 (centres undefined),6.81 µM,14.7 µM,41.2 µM,
COc1cccc(-c2nn(-c3ccccc3)cc2C(Nc2nc3ccc(Cl)cc3s2)c2c(O)ccc3ccccc23)c1 (centres undefined),30 µM,36 µM,49.8 µM,
COc1ccc(-c2nn(-c3ccccc3)cc2C(Nc2nc3ccc(OC)cc3s2)c2c(O)ccc3ccccc23)cc1 (centres undefined),9.24 µM,41.8 µM,28.1 µM,
COc1cccc(-c2nn(-c3ccccc3)cc2C(Nc2nc3ccccc3s2)c2c(O)ccc3ccccc23)c1 (centres undefined),14.9 µM,16.9 µM,24.8 µM,
COc1ccc2nc(NC(c3cn(-c4ccccc4)nc3-c3ccc(F)cc3)c3c(O)ccc4ccccc34)sc2c1 (centres undefined),4.63 µM,16.9 µM,33.6 µM,Activity (HeLa [2]): 5.08%; Activity (HeLa [3]): 57.5%; Activity (Calf thymus DNA [4]): Active; IC50 (HEK293): 58.1 µM; Activity (HeLa [5]): 3.09%; Activity (Calf thymus DNA [6]): Active; Activity (HeLa [7]): 28.2%; Activity (HeLa [8]): 25.3%; Activity (Calf thymus DNA [9]): Active; Activity (HeLa [10]): 2.79%; inhibition [11]: Active; Activity (HeLa [12]): 60%; Activity (Calf thymus DNA [13]): inactive; Activity (HeLa [14]): 11.5%; Activity (Calf thymus DNA [15]): 507 nm; Activity (Calf thymus DNA [16]): Active
Oc1ccc2ccccc2c1C(Nc1nc2ccc(Cl)cc2s1)c1cn(-c2ccccc2)nc1-c1ccc(F)cc1 (centres undefined),30.1 µM,21.6 µM,32.1 µM,
Cc1cccc(-c2nn(-c3ccccc3)cc2C(Nc2nc3ccccc3s2)c2c(O)ccc3ccccc23)c1 (centres undefined),7.02 µM,17.3 µM,18.5 µM,
Cc1ccc(-c2nn(-c3ccccc3)cc2C(Nc2nc3ccccc3s2)c2c(O)ccc3ccccc23)cc1 (centres undefined),8.05 µM,13.1 µM,57.4 µM,
Oc1ccc2ccccc2c1C(Nc1nc2ccccc2s1)c1cn(-c2ccccc2)nc1-c1ccc(I)cc1 (centres undefined),6.59 µM,18.9 µM,23.1 µM,

SMILES,IC50 (HeLa [1]),IC50 (MCF7),IC50 (A549),other results
COc1ccc(-c2nn(-c3ccccc3)cc2C(Nc2nc3ccccc3s2)c2c(O)ccc3ccccc23)cc1 (centres undefined),9.34 µM,17.5 µM,26.2 µM,
COc1ccc2nc(NC(c3cn(-c4ccccc4)nc3-c3cccc([N+](=O)[O-])c3)c3c(O)ccc4ccccc34)sc2c1 (centres undefined),6.14 µM,26.8 µM,52.1 µM,
CC[n+]1c(-c2ccccc2)c2cc(N)ccc2c2ccc(N)cc21,,,,Activity (Calf thymus DNA [17]): Active
Cc1cc2nc(NC(c3cn(-c4ccccc4)nc3-c3ccc([N+](=O)[O-])cc3)c3c(O)ccc4ccccc34)sc2cc1C (centres undefined),14.7 µM,41.1 µM,41.9 µM,
COc1ccc2nc(NC(c3cn(-c4ccccc4)nc3-c3ccc([N+](=O)[O-])cc3)c3c(O)ccc4ccccc34)sc2c1 (centres undefined),5.54 µM,13.3 µM,22.5 µM,Activity (Calf thymus DNA [4]): Active; IC50 (HEK293): 46.5 µM; Activity (Calf thymus DNA [6]): Active; Activity (Calf thymus DNA [9]): Active; inhibition [11]: Active; Activity (Calf thymus DNA [13]): inactive; Activity (Calf thymus DNA [15]): 337 nm; Activity (Calf thymus DNA [16]): Active
COc1ccc2nc(NC(c3cn(-c4ccccc4)nc3-c3ccccc3)c3c(O)ccc4ccccc34)sc2c1 (centres undefined),8.29 µM,40.8 µM,44.6 µM,
CN1CCN(c2ccc3nc(-c4ccc5nc(-c6ccc(O)cc6)[nH]c5c4)[nH]c3c2)CC1,23.5 µM,48.1 µM,,
Oc1ccc2ccccc2c1C(Nc1nc2ccccc2s1)c1cn(-c2ccccc2)nc1-c1cccc(Cl)c1 (centres undefined),6.83 µM,20.7 µM,20.4 µM,
O=[N+]([O-])c1cccc(-c2nn(-c3ccccc3)cc2C(Nc2nc3ccccc3s2)c2c(O)ccc3ccccc23)c1 (centres undefined),8.22 µM,43.9 µM,32 µM,
Cc1ccc2nc(NC(c3cn(-c4ccccc4)nc3-c3cccc(Cl)c3)c3c(O)ccc4ccccc34)sc2c1 (centres undefined),9.43 µM,49.7 µM,45.4 µM,
O=[N+]([O-])c1ccc(-c2nn(-c3ccccc3)cc2C(Nc2nc3ccc(Cl)cc3s2)c2c(O)ccc3ccccc23)cc1 (centres undefined),13.4 µM,38.6 µM,57.2 µM,
COc1cccc(-c2nn(-c3ccccc3)cc2C(Nc2nc3ccc(OC)cc3s2)c2c(O)ccc3ccccc23)c1 (centres undefined),10.5 µM,62.6 µM,88.1 µM,
Cc1ccc2nc(NC(c3cn(-c4ccccc4)nc3-c3ccc([N+](=O)[O-])cc3)c3c(O)ccc4ccccc34)sc2c1 (centres undefined),7.04 µM,20.7 µM,29 µM,
CN1CCN(c2ccc3[nH]c(-c4ccc5[nH]c(-c6ccc(O)cc6)nc5c4)nc3c2)CC1,,,,Activity (Calf thymus DNA [17]): inactive
Cc1ccc2nc(NC(c3cn(-c4ccccc4)nc3-c3cccc([N+](=O)[O-])c3)c3c(O)ccc4ccccc34)sc2c1 (centres undefined),7.36 µM,38.4 µM,57.4 µM,
Oc1ccc2ccccc2c1C(Nc1nc2ccc(Cl)cc2s1)c1cn(-c2ccccc2)nc1-c1ccccc1 (centres undefined),12.5 µM,36.3 µM,51.1 µM,

# Reference: ChEMBL document CHEMBL4330150, “Synthesis and biological evaluation of pyrazole linked benzothiazole-β-naphthol derivatives as topoisomerase I inhibitors with DNA binding ability” (Bioorg Med Chem, 2019)
